Laboratory results: patent publication US9290765B2, “Protection against endothelial barrier dysfunction through inhibition of the tyrosine kinase abl-related gene (ARG)” (VERENIGING VOOR CHRISTELIJK HOGER ONDERWIJS, …, priority 2011, dated 2016)

What was measured:
HUVECs [1] = experiment: Electrical Cell-substrate Impedance Sensing (ECIS) of HUVEC monolayers, thrombin stimulation; format: cell-based, human
Description: (§1) For ECIS measurements, cells were trypsinized and seeded in 1:1 density on gelatine-coated ECIS arrays, each containing 8 wells with 10 gold electrodes/well (8 W10E, Applied Biophysics, Troy, N.Y., USA). Culture medium was refreshed 24 h after seeding, while experiments were performed 48 h after seeding. For pretreatment, designated pharmacological inhibitors or vector were dissolved in M199 supplemented with 1% HSA. After 90 min of pretreatment, thrombin was added directly to the cells for a final concentration of 1 U/mL. During stimulation impedance was measured at multiple frequencies to allow for calculation of resistance attributable to cell-cell adhesion (Rb) and resistance attributable to cell-matrix interaction (alpha). The absolute resistance was measured, while the relative resistance was calculated by normalization to the time point just before addition of the thrombin, to correct for baseline differences.

HUVECs [2] = experiment: HRP passage across thrombin-stimulated HUVEC monolayers on porous filters; format: cell-based, human; conditions: for effect on thrombin-induced HRP passage: HUVECs
Description: (§2) Endothelial barrier function was evaluated with horse radish peroxidase (HRP) passage and Electrical Cell-substrate Impedance Sensing (ECIS). For measurement of HRP passage, confluent cells were seeded in 1:1 density on 0.33 cm^2 Costar polycarbonate filters, pore-size 3.0 μm (Corning, Lowell, Mass., USA) and grown to confluence in 4 or 5 days, with change of culture medium every other day. For pretreatment, pharmacological inhibitors or vector were dissolved in M199 supplemented with 1% human serum albumin (HSA, Sanquin CLB), and after removal of culture medium, solutions were added to the upper compartment of the filters during 60 min. For stimulation, pretreatment medium was changed for 1% HSA/M199 containing designated inhibitors, HRP 5 μg/mL (Sigma Aldrich) and thrombin 1 U/mL. 1% HSA/M199 was added to the lower compartment. At indicated time points samples were taken from the lower compartment; HRP concentration in samples was detected by measuring chemoluminiscence after addition of TMB/E (Upstate/Millipore).

[3] = tested on: human pulmonary microvascular endothelial cells (HPMVECs); experiment: HRP passage over HPMVEC monolayers, thrombin stimulation; format: cell-based; conditions: imatinib 10 μM, thrombin 1 U/mL
Description: as §2

[4] = tested on: human pulmonary microvascular endothelial cells (HPMVECs); experiment: ECIS of HPMVEC monolayers, thrombin stimulation; format: cell-based; conditions: imatinib 10 μM, thrombin 1 U/mL
Description: as §1

[5] = tested on: human foreskin microvascular endothelial cells (HFMVECs); experiment: ECIS of HFMVEC monolayers, thrombin stimulation; format: cell-based; conditions: imatinib 10 μM, thrombin 1 U/mL
Description: as §1

HUVECs [6] = experiment: Immunofluorescence staining of VE-cadherin, β-catenin and F-actin in thrombin-stimulated HUVECs; format: cell-based, human
Description: Cells were seeded on glass coverslips coated with gelatine 1% and pretreated with glutaraldehyde 0.5% (Fluka, St. Gallen, Switzerland). Cells were seeded in 1:1 density and grown to confluence in 48-72 hours. For pretreatment, culture medium was changed to 1% HSA/M199, containing pharmacological inhibitors or vector. After 60 min of pretreatment, thrombin was added directly to the wells for a final concentration of 1 U/mL. At indicated time points, medium was removed and warm paraformaldehyde 2% (Sigma Aldrich) was added to the cells, while kept on ice for 15 min. Cells were permeabilized with Triton X-100 0.05% (Sigma Aldrich) in phosphate-buffered saline (PBS), and incubated overnight with primary antibodies for β-catenin (1:100), VE-cadherin (1:400) or Arg (1:150) in 0.1% HSA/PBS. Subsequently, cells were washed and incubated with FITC-labeled secondary antibodies (Invitrogen, Paisly, United Kingdom) and rhodamine/phalloidin (Invitrogen) for 1 h at room temperature. Cells were washed and sealed in Vectashield mounting medium containing DAPI (Vector Laboratories Inc., Burlingham, Calif., USA) for nuclear staining. Immunofluorescent imaging was performed with an Axiovert 200 Marianas™ inverted wide-field fluorescence microscope, using a 40× Zeiss air lens (NA 0.75) and a 63× Zeiss oil lens (NA 1.4). […]

RhoA = experiment: G-LISA RhoA Activity Assay in HUVEC lysates; format: cell-based, human; conditions: HUVECs; imatinib 10 μM; thrombin 1 U/mL
Description: After stimulation, cells were washed with ice-cold PBS and lysed with lysis buffer containing […] Tris/HCl pH 8.0, 0.15M NaCl, 0.09M KCl, 2 mM EDTA/NaOH pH 8.0, 5% Igepal, and 0.5% Triton X-100, further supplemented with PhosStop […] inhibitor (Roche Diagnostics, Mannheim, Germany), and Complete EDTA-free […] inhibitor (Roche Diagnostics). After centrifugation of the cell lysates, the supernatant was snap-frozen and stored at −80° C. Relative RhoA activity was determined with a G-LISA RhoA Activity Assay (Cytoskeleton Inc, Denver, Colo., USA), according to the manufacturers protocol.

[7] = HUVECs transfected with Arg siRNA, imatinib 10 μM, thrombin 1 U/mL
[8] = HUVECs, imatinib 10 μM, thrombin 1 U/mL

COc1cc2ncc(-c3ccccc3)nc2cc1OC [AG1296]
basal endothelial barrier function / basal endothelial resistance (ECIS) (HUVECs [1]; HUVECs, no thrombin): improved | effect on thrombin-induced decrease in endothelial resistance (thrombin response, words) (HUVECs [1]; HUVECs, thrombin 1 U/mL): did not inhibit

C[C@@H](N)[C@H]1CC[C@H](C(=O)Nc2ccncc2)CC1 [Y-27632]
effect on thrombin-induced HRP passage (HUVECs [2]; thrombin 1 U/mL): reduced | effect on thrombin-induced decrease in endothelial resistance (thrombin response, words) (HUVECs [1]; HUVECs, thrombin 1 U/mL): reduced

Cc1ccc(NC(=O)c2ccc(CN3CCN(C)CC3)cc2)cc1Nc1nccc(-c2cccnc2)n1 [imatinib, 4-[(4-methyl-1-piperazinyl)methyl]-N-[4-methyl-3-[[(4-(3-pyridinyl)-2-pyrimidinyl]amino]-phenyl]benzamidemethane sulfonate]
HRP passage in Arg deficient cells, imatinib vs DMSO pretreatment (HUVECs [2]; [7]): significantly lower | effect on thrombin-induced HRP passage (HUVECs [2]; thrombin 1 U/mL): reduced | inhibition at 10 µM (HUVECs [2]; Homo sapiens, HUVEC, read-out: inhibition of thrombin-induced HRP passage): 35 to 44% | decrease in normalized resistance in Arg deficient cells, imatinib pretreatment (HUVECs [1]; [7]): no additive effect | thrombin response in c-Abl deficient cells (HUVECs [1]; HUVECs transfected with c-Abl siRNA, imatinib 10 μM, thrombin 1 U/mL): still attenuated | maximal drop in electrical resistance (HUVECs [1]; HUVECs, imatinib 10 μM, Y-27632 10 μM, thrombin 1 U/mL, FIGS. 2C and D): −0.44±0.02 | maximal decrease in normalized Rb (cell-cell interaction) (HUVECs [1]; [8]): −0.87±0.03 | thrombin-induced drop in cell-matrix interaction (alpha) (HUVECs [1]; [8]): attenuation | effect on thrombin-induced decrease in endothelial resistance (thrombin response, words) (HUVECs [1]; HUVECs, thrombin 1 U/mL): reduced | maximal decrease in normalized resistance (HUVECs [1]; HUVECs, thrombin 1 U/mL, FIGS. 1B and 1C): −0.41±0.03 | effect on thrombin-induced decrease in endothelial resistance (thrombin response, words) (HUVECs [1]; HUVECs, thrombin 1 U/mL, listed as Imatinib): attenuated | thrombin-induced macromolecule passage [3]: reduced | maximal drop in endothelial resistance [4]: attenuated | effects on Rb and alpha ([4]; compared with HUVECs): Comparable effects | thrombin-induced maximal drop in endothelial resistance [5]: attenuated | thrombin-induced loss of VE-cadherin and β-catenin from the membrane (HUVECs [6]; imatinib 10 μM, thrombin 30 min): partly reversed | F-actin organization after thrombin (HUVECs [6]; imatinib pretreated, thrombin 15 min): not organized in F-actin stress fibers | thrombin-induced RhoA activity (RhoA): not affected
